Test [1] has as its target T1, BACE1 (Homo sapiens (Human), UniProt P56817). Nature of the test: In vitro enzymatic BACE1 FRET assay. It counts as biochemical.
Target sequence in this assay (P56817 46-501): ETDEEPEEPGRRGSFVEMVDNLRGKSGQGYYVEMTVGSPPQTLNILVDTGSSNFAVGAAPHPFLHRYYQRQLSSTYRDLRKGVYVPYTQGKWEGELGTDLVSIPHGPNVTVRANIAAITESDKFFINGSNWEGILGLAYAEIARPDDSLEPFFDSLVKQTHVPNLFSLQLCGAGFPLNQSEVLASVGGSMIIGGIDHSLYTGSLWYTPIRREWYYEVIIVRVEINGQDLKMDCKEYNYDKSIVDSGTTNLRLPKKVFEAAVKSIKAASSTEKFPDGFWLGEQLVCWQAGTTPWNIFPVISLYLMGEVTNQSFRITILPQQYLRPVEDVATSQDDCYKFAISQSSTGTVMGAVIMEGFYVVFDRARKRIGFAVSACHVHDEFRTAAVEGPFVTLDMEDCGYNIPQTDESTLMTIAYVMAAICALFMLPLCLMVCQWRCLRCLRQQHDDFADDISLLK
Source text: (§1) In Vitro Enzymatic BACE1 and BACE2 FRET (Fluorescence Resonance Energy Transfer) Assays (Enzyme Assay Data in Table 1)
Test [2] has as its target T1, BACE1. Briefly: BACE1 cell assay. The class given is cell-based.
Target sequence in this assay (P56817 46-501, species assumed): as the sequence (P56817 46-501) above
Test [3] addresses BACE2 (Homo sapiens (Human), UniProt Q9Y5Z0). Briefly: In vitro enzymatic BACE2 FRET assay. It counts as biochemical.
Source text: as §1
In test [4] the target is Cathepsin D (CatD) (Homo sapiens (Human), UniProt P07339). Nature of the test: CatD assay. It counts as biochemical. The following applies: read-out: IC50 IP (μM) CatD.
Cathepsin D (CatD), sequence (P07339 65-412, species assumed): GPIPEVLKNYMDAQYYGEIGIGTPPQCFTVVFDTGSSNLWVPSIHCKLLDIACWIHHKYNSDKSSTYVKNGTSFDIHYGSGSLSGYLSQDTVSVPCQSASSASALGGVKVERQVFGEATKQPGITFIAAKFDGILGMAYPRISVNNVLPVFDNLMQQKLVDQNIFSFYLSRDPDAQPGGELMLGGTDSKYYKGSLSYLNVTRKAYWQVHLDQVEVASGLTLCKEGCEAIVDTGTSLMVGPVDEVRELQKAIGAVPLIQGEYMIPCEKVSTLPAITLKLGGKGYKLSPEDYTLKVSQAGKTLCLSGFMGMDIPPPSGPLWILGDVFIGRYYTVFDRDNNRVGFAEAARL
[5] abbreviates: read-out: IC50 IP (μM) BACE1 Enzyme.
Setting [6] is: read-out: IC50 IP (μM) BACE1 Cell.
[7] abbreviates: read-out: IC50 IP (μM) BACE2 Enzyme.

Molecules are shown by their SMILES. Where two headings read alike, the source gives them in different places.

BACE2, sequence (Q9Y5Z0 63-518): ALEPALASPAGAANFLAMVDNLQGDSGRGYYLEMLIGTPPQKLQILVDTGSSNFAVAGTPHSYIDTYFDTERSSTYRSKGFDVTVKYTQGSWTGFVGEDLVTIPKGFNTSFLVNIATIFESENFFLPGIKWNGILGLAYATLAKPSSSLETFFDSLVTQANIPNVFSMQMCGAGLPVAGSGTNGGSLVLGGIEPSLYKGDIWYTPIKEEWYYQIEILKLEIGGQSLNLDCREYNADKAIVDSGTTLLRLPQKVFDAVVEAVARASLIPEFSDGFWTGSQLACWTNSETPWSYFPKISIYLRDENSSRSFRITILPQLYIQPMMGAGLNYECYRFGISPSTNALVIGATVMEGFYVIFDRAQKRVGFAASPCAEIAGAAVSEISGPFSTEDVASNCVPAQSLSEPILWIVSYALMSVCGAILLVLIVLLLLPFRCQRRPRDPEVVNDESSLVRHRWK

As usually defined, the IC50 is the concentration at which inhibition is half-maximal. As for `C[C@H]1CN(C(=O)[C@]23C[C@H]2[C@@](C)(c2cc(/C=C(\F)c4ccc(C#N)cn4)ccc2F)N=C(N)S3)C[C@H](C)O1` [Example 323, 6-((Z)-2-(3-((1S,5S,6S)-3-amino-1-((2S,6S)-2,6-dimethylmorpholine-4-carbonyl)-5-methyl-2-thia-4-azabicyclo[4.1.0]hept-3-en-5-yl)-4-fluorophenyl)-1-fluorovinyl)nicotinonitrile], the IC50 in test [1] (setting [5]) came out at 0.0031 µM; in test [2] (setting [6]), 0.0026 µM; in test [3] (setting [7]) it was 0.192 µM; in test [4] it was 411 µM.
Take `C[C@]1(c2cc(/C=C(\F)c3ccc(C#N)cn3)ccc2F)N=C(N)S[C@@]2(C(=O)N3CCC(F)(F)CC3)C[C@H]21` [Example 325, 6-((Z)-2-(3-((1S,5S,6S)-3-amino-1-(4,4-difluoropiperidine-1-carbonyl)-5-methyl-2-thia-4-azabicyclo[4.1.0]hept-3-en-5-yl)-4-fluorophenyl)-1-fluorovinyl)nicotinonitrile]: the IC50 in test [1] (setting [5]) came to 0.0019 µM; in test [2] (setting [6]) it was 0.0042 µM; in test [3] (setting [7]) it was 0.089 µM; in test [4], 446 µM.
The corresponding values for `C[C@]1(c2cc(/C=C(\F)c3ccc(C#N)cn3)ccc2F)N=C(N)S[C@@]2(C(=O)N3CCC(F)CC3)C[C@H]21` [Example 326, 6-((Z)-2-(3-((1S,5S,6S)-3-amino-1-(4-fluoropiperidine-1-carbonyl)-5-methyl-2-thia-4-azabicyclo[4.1.0]hept-3-en-5-yl)-4-fluorophenyl)-1-fluorovinyl)nicotinonitrile] are 0.0016 µM, 0.0022 µM, 0.045 µM and 648 µM.
The matching figures for `C[C@]1(c2cc(/C=C(\F)c3ccc(C#N)cn3)ccc2F)N=C(N)S[C@@]2(C(=O)N3CCC4(CCO4)C3)C[C@H]21` (stereo partly drawn) [Example 327, 6-((Z)-2-(3-((1S,5S,6S)-3-amino-5-methyl-1-(1-oxa-6-azaspiro[3.4]octane-6-carbonyl)-2-thia-4-azabicyclo[4.1.0]hept-3-en-5-yl)-4-fluorophenyl)-1-fluorovinyl)nicotinonitrile]: 0.0008 µM, 0.0003 µM, 0.028 µM and 143 µM.
The matching figures for `COC[C@H]1COCCN1C(=O)[C@]12C[C@H]1[C@@](C)(c1cc(/C=C(\F)c3ccc(C#N)cn3)ccc1F)N=C(N)S2` [Example 328, 6-((Z)-2-(3-((1S,5S,6S)-3-amino-1-((S)-3-(methoxymethyl)morpholine-4-carbonyl)-5-methyl-2-thia-4-azabicyclo[4.1.0]hept-3-en-5-yl)-4-fluorophenyl)-1-fluorovinyl)nicotinonitrile]: 0.0023 µM, 0.0019 µM, 0.085 µM and 40.3 µM.
As to `C[C@H]1CN(C(=O)[C@]23C[C@H]2[C@@](C)(c2cc(/C=C(\F)c4ccc(C#N)cn4)ccc2F)N=C(N)S3)[C@@H](C)CO1` [Example 329, 6-((Z)-2-(3-((1S,5S,6S)-3-amino-1-((2S,5S)-2,5-dimethylmorpholine-4-carbonyl)-5-methyl-2-thia-4-azabicyclo[4.1.0]hept-3-en-5-yl)-4-fluorophenyl)-1-fluorovinyl)nicotinonitrile], the IC50 was found to be 0.0045 µM in test [1] (setting [5]), 0.0035 µM in test [2] (setting [6]), 0.124 µM in test [3] (setting [7]) and 73.9 µM in test [4].
The matching figures for `C[C@@H]1CN(C(=O)[C@]23C[C@H]2[C@@](C)(c2cc(/C=C(\F)c4ccc(C#N)cn4)ccc2F)N=C(N)S3)[C@H](C)CO1` [Example 330, 6-((Z)-2-(3-((1S,5S,6S)-3-amino-1-((2R,5R)-2,5-dimethylmorpholine-4-carbonyl)-5-methyl-2-thia-4-azabicyclo[4.1.0]hept-3-en-5-yl)-4-fluorophenyl)-1-fluorovinyl)nicotinonitrile]: 0.0086 µM, 0.0177 µM, 0.239 µM and 138 µM.
As for `C[C@]1(c2cc(/C=C(\F)c3ccc(C#N)cn3)ccc2F)N=C(N)S[C@@]2(C(=O)N3CCOCC34CCC4)C[C@H]21` [Example 331, 6-((Z)-2-(3-((1S,5S,6S)-3-amino-5-methyl-1-(8-oxa-5-azaspiro[3.5]nonane-5-carbonyl)-2-thia-4-azabicyclo[4.1.0]hept-3-en-5-yl)-4-fluorophenyl)-1-fluorovinyl)nicotinonitrile], the IC50 in test [1] (setting [5]) was determined as 0.0013 µM; in test [2] (setting [6]) it was 0.0032 µM; in test [3] (setting [7]), 0.061 µM; in test [4] it was 8.9 µM.
Turning to `CC1(C)COCCN1C(=O)[C@]12C[C@H]1[C@@](C)(c1cc(/C=C(\F)c3ccc(C#N)cn3)ccc1F)N=C(N)S2` [Example 332, 6-((Z)-2-(3-((1S,5S,6S)-3-amino-1-(3,3-dimethylmorpholine-4-carbonyl)-5-methyl-2-thia-4-azabicyclo[4.1.0]hept-3-en-5-yl)-4-fluorophenyl)-1-fluorovinyl)nicotinonitrile], the IC50 in test [1] (setting [5]) stood at 0.0023 µM; in test [2] (setting [6]) it was 0.0026 µM; in test [3] (setting [7]) it was 0.109 µM; in test [4] it was 117 µM.
Regarding `CC[C@H]1COCCN1C(=O)[C@]12C[C@H]1[C@@](C)(c1cc(/C=C(\F)c3ccc(C#N)cn3)ccc1F)N=C(N)S2` [Example 334, 6-((Z)-2-(3-((1S,5S,6S)-3-amino-1-((S)-3-ethylmorpholine-4-carbonyl)-5-methyl-2-thia-4-azabicyclo[4.1.0]hept-3-en-5-yl)-4-fluorophenyl)-1-fluorovinyl)nicotinonitrile], the IC50 in test [1] (setting [5]) came out at 0.0064 µM; in test [2] (setting [6]), 0.0041 µM; in test [3] (setting [7]) it was 0.146 µM; in test [4] it was 19 µM.
For the compound `C[C@]1(c2cc(/C=C(\F)c3ccc(C#N)cn3)ccc2F)N=C(N)S[C@@]2(C(=O)N3CCOC[C@@H]3CO)C[C@H]21` [Example 335], the half-maximal inhibitory concentration (IC50) was determined as 0.0028 µM in test [1], 0.0026 µM in test [2], 0.186 µM in test [3] and 148 µM in test [4].
On to `C[C@H]1[C@H](O)CCN1C(=O)[C@]12C[C@H]1[C@@](C)(c1cc(/C=C(\F)c3ccc(C#N)cn3)ccc1F)N=C(N)S2` [Example 336, 6-((Z)-2-(3-((1S,5S,6S)-3-amino-1-((2S,3R)-3-hydroxy-2-methylpyrrolidine-1-carbonyl)-5-methyl-2-thia-4-azabicyclo[4.1.0]hept-3-en-5-yl)-4-fluorophenyl)-1-fluorovinyl)nicotinonitrile], for which the concentration for half-maximal inhibition (IC50) in test [1] (setting [5]) came out at 0.0013 µM; in test [2] (setting [6]) it was 0.0005 µM; in test [3] (setting [7]), 0.055 µM; in test [4], 151 µM.
The corresponding values for `C[C@]1(c2cc(/C=C(\F)c3ccc(C#N)cn3)ccc2F)N=C(N)S[C@@]2(C(=O)N3CCCC3c3ccccc3)C[C@H]21` (stereo partly drawn) [Example 337, 6-((Z)-2-(3-((1S,5S,6S)-3-amino-5-methyl-1-(2-phenylpyrrolidine-1-carbonyl)-2-thia-4-azabicyclo[4.1.0]hept-3-en-5-yl)-4-fluorophenyl)-1-fluorovinyl)nicotinonitrile] are 0.0044 µM, 0.01 µM, 0.046 µM and 2.4 µM.
As for `C[C@]1(c2cc(/C=C(\F)c3ccc(Br)cn3)ccc2F)N=C(N)S[C@@]2(C(=O)N3CCOCC3)C[C@H]21` [Example 338, ((1S,5S,6S)-3-amino-5-(5-((Z)-2-(5-bromopyridin-2-yl)-2-fluorovinyl)-2-fluorophenyl)-5-methyl-2-thia-4-azabicyclo[4.1.0]hept-3-en-1-yl)(morpholino)methanone], the IC50 turned out to be 0.0011 µM in test [1] (setting [5]), 0.0034 µM in test [2] (setting [6]), 0.005 µM in test [3] (setting [7]) and 353 µM in test [4].
The matching figures for `C[C@]1(c2cc(/C=C(\F)c3ccccn3)ccc2F)N=C(N)S[C@@]2(C(=O)N3CCOCC3)C[C@H]21` [Example 339, ((1S,5S,6S)-3-amino-5-(2-fluoro-5-((Z)-2-fluoro-2-(pyridin-2-yl)vinyl)phenyl)-5-methyl-2-thia-4-azabicyclo[4.1.0]hept-3-en-1-yl)(morpholino)methanone]: 0.22 µM, 0.252 µM, 0.165 µM and 520 µM.
Consider `C[C@]1(c2cc(/C=C(\F)c3ccc(C4COC4)cn3)ccc2F)N=C(N)S[C@@]2(C(=O)N3CCOCC3)C[C@H]21` [Example 340, ((1S,5S,6S)-3-amino-5-(2-fluoro-5-((Z)-2-fluoro-2-(5-(oxetan-3-yl)pyridin-2-yl)vinyl)phenyl)-5-methyl-2-thia-4-azabicyclo[4.1.0]hept-3-en-1-yl)(morpholino)methanone], for which the IC50 turned out to be 0.545 µM in test [1] (setting [5]), 0.457 µM in test [2] (setting [6]), 3.21 µM in test [3] (setting [7]) and 298 µM in test [4].
Regarding `COC(CNC(=O)[C@]12C[C@H]1[C@@](C)(c1cc(/C=C(\F)c3ccc(C#N)cn3)ccc1F)N=C(N)S2)OC` [Example 341, (1S,5S,6S)-3-amino-5-(5-((Z)-2-(5-cyanopyridin-2-yl)-2-fluorovinyl)-2-fluorophenyl)-N-(2,2-dimethoxyethyl)-5-methyl-2-thia-4-azabicyclo[4.1.0]hept-3-ene-1-carboxamide], the IC50 in test [1] (setting [5]) is 0.003 µM; in test [2] (setting [6]), 0.0011 µM; in test [3] (setting [7]) it was 0.024 µM; in test [4] it was 6.8 µM.
`CC1COC([C@]23C[C@H]2[C@@](C)(c2cc(/C=C(\F)c4ccc(C#N)cn4)ccc2F)N=C(N)S3)=N1` (stereo partly drawn) [Example 342, 6-((Z)-2-(3-((1S,5S,6S)-3-amino-5-methyl-1-(4-methyl-4,5-dihydrooxazol-2-yl)-2-thia-4-azabicyclo[4.1.0]hept-3-en-5-yl)-4-fluorophenyl)-1-fluorovinyl)nicotinonitrile]: the IC50 turned out to be 0.122 µM in test [1] (setting [5]), 0.0073 µM in test [2] (setting [6]), 0.7 µM in test [3] (setting [7]) and 400 µM in test [4].

Source of the values: US10246429B2, “Vinyl fluoride cyclopropyl fused thiazin-2-amine compounds as beta-secretase inhibitors and methods of use” (AMGEN INC., priority 2015, dated 2019).
